Test results published in patent US20230086702A1, “SUBSTITUTED 2-AMINO-PYRAZOLYL-[1,2,4]TRIAZOLO[1,5A]PYRIDINE DERIVATIVES AND USE THEREOF” (The Johns Hopkins University, priority 2019, published 2023).

Assays:
DLK = biological target: T1, DLK (Homo sapiens, UniProt Q12852); test: DLK biochemical assay (TR-FRET, MKK7 phosphorylation); settings: DLK catalytic domain, MKK7 substrate, 60 μM ATP
T1 construct: 10 nM DLK, catalytic domain, Carna Biosiences; purchased Carna Biosciences ('Carna Biosiences' [sic])
T1 sequence (Q12852 125-366 limits assumed): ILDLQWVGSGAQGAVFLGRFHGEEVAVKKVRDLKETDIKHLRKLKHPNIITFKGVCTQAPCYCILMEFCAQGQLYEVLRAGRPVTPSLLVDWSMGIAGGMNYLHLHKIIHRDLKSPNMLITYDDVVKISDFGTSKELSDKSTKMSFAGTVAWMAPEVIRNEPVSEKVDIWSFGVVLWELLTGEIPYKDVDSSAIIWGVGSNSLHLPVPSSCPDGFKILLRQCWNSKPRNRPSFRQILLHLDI
Experimental: (§1) DLK assay is a biochemical assay format designed to screen for inhibitors of DLK. Enzymatic activity of DLK is measured by monitoring phosphorylation of the physiological substrate MKK7 (MAP2K7, Dual specificity mitogen-activated protein kinase kinase 7). Phosphorylation is detected by a TR-FRET system whereby His-tagged MKK7 is labeled by a XL665-labeled anti-His antibody (FRET acceptor, emission 665 nm). DLK phosphorylates MKK7 at T275/S277, which is detected by an Eu-labeled anti-phospho-MKK7 (T275/S277) antibody (FRET donor, excitation 340 nm). Phosphorylation of MKK7 results in an increased TR-FRET signal (Ratio XL665-channel/Eu-channel) and inhibition of enzymatic activity of DLK decreases the TR-FRET signal.
All indicated concentrations are final concentrations.
(§2) Detection buffer: 25 mM Tris/HCl pH 7.5, 100 mM EDTA, 100 mM NaCl, 200 mM KF, 0.01% Tween 20, 1:500 Smart Block.

LZK = biological target: T2, LZK (Homo sapiens, UniProt O43283); test: LZK biochemical assay (TR-FRET, MKK7 phosphorylation); settings: LZK catalytic domain, MKK7 substrate, 15 μM ATP
T2 construct: 10 nM LZK, catalytic domain, Carna Biosiences in assay buffer; purchased Carna Biosciences ('Carna Biosiences' [sic])
T2 sequence (O43283 168-409 limits assumed): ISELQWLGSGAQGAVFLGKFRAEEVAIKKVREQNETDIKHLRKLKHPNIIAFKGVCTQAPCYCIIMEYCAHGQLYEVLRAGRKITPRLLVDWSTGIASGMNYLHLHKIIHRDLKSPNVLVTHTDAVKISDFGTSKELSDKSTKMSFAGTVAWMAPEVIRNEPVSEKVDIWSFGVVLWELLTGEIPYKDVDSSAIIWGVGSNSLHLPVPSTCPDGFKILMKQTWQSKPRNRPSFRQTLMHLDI
Experimental: as §1, with “LZK” for “DLK”, “LZK.” for “DLK.”, “T275/S277” for “T275/S277,”
All indicated concentrations final concentrations.
as §2

In the case of `CC[C@H](C)NC(=O)c1cc(-c2cnn(C(c3ccc(C(F)F)nc3)C(C)C)c2)cc2nc(N)nn12` (mixture of isomers) [Example I-95, 2-Amino-N-[(2S)-butan-2-yl]-7-(1-{1-[6-(difluoromethyl)pyridin-3-yl]-2-methylpropyl}-1H-pyrazol-4-yl)[1,2,4]triazolo[1,5-a]pyridine-5-carboxamide], the IC50 (DLK) is reported as 1.5 nM and the IC50 (LZK) is reported as 4.7 nM.
Work on `CC[C@H](C)NC(=O)c1cc(-c2cnn(C(c3ccc(C(F)F)nc3)C3CC3)c2)cc2nc(N)nn12` (mixture of isomers) [Example I-98, 2-Amino-N-[(2S)-butan-2-yl]-7-(1-{cyclopropyl[6-(difluoromethyl)pyridin-3-yl]methyl}-1H-pyrazol-4-yl)[1,2,4]triazolo[1,5-a]pyridine-5-carboxamide] yielded an IC50 (DLK) of 8.6 nM and an IC50 (LZK) of 7.3 nM.
In the case of `CCC(c1ccc(C(F)(F)F)nc1)n1cc(-c2cc(C(=O)N[C@@H](C)CC)n3nc(N)nc3c2)cn1` (mixture of isomers) [Example I-101, 2-Amino-N-[(2S)-butan-2-yl]-7-(1-{1-[6-(trifluoromethyl)pyridin-3-yl]propyl}-1H-pyrazol-4-yl)[1,2,4]triazolo[1,5-a]pyridine-5-carboxamide], the IC50 (DLK) is reported as 1.2 nM and the IC50 (LZK) is reported as 2.8 nM.
Work on `CC[C@H](C)NC(=O)c1cc(-c2cnn(C(c3ccc(C(F)(F)F)nc3)C(C)C)c2)cc2nc(N)nn12` (mixture of isomers) [Example I-104, 2-Amino-N-[(2S)-butan-2-yl]-7-(1-{2-methyl-1-[6-(trifluoromethyl)pyridin-3-yl]propyl}-1H-pyrazol-4-yl)[1,2,4]triazolo[1,5-a]pyridine-5-carboxamide] yielded an IC50 (DLK) of 1.3 nM and an IC50 (LZK) of 2.9 nM.
In the case of `CC[C@H](C)NC(=O)c1cc(-c2cnn(C(c3ccc(C(F)(F)F)nc3)C3CC3)c2)cc2nc(N)nn12` (mixture of isomers) [Example I-107, 2-Amino-N-[(2S)-butan-2-yl]-7-(1-{cyclopropyl[6-(trifluoromethyl)pyridin-3-yl]methyl}-1H-pyrazol-4-yl)[1,2,4]triazolo[1,5-a]pyridine-5-carboxamide], the IC50 (DLK) is reported as 1.7 nM and the IC50 (LZK) is reported as 3.5 nM.
For `CC[C@H](C)NC(=O)c1cc(-c2cnn(C(c3ccc(C(F)(F)F)nc3)C3CCOCC3)c2)cc2nc(N)nn12` (mixture of isomers) [Example I-110, 2-Amino-N-[(2S)-butan-2-yl]-7-(1-{tetrahydro-2H-pyran-4-yl[6-(trifluoromethyl)pyridin-3-yl]methyl}-1H-pyrazol-4-yl)[1,2,4]triazolo[1,5-a]pyridine-5-carboxamide], the IC50 (DLK) was 1.6 nM and the IC50 (LZK) was 2.3 nM.
Compound `CCC(c1ccc(OCC(F)(F)F)nc1)n1cc(-c2cc(C(=O)N[C@@H](C)CC)n3nc(N)nc3c2)cn1` (mixture of isomers) [Example I-113, 2-Amino-N-[(2S)-butan-2-yl]-7-(1-{1-[6-(2,2,2-trifluoroethoxy)pyridin-3-yl]propyl}-1H-pyrazol-4-yl)[1,2,4]triazolo[1,5-a]pyridine-5-carboxamide] has an IC50 (DLK) of 5.4 nM and an IC50 (LZK) of 12 nM.
`CC[C@H](C)NC(=O)c1cc(-c2cnn(C(c3ccc(OCC(F)(F)F)nc3)C(C)C)c2)cc2nc(N)nn12` (mixture of isomers) [Example I-116, 2-Amino-N-[(2S)-butan-2-yl]-7-(1-{2-methyl-1-[6-(2,2,2-trifluoroethoxy)pyridin-3-yl]propyl}-1H-pyrazol-4-yl)[1,2,4]triazolo[1,5-a]pyridine-5-carboxamide] gave an IC50 (DLK) of 8.2 nM and an IC50 (LZK) of 68 nM.
`CC[C@H](C)NC(=O)c1cc(-c2cnn(C(c3ccc(OCC(F)(F)F)nc3)C3CC3)c2)cc2nc(N)nn12` (mixture of isomers) [Example I-119, 2-Amino-N-[(2S)-butan-2-yl]-7-(1-{cyclopropyl[6-(2,2,2-trifluoroethoxy)pyridin-3-yl]methyl}-1H-pyrazol-4-yl)[1,2,4]triazolo[1,5-a]pyridine-5-carboxamide] gave an IC50 (DLK) of 6.5 nM and an IC50 (LZK) of 36 nM.
Work on `CCC(c1ccnc(C(F)(F)F)c1)n1cc(-c2cc(C(=O)N[C@@H](C)CC)n3nc(N)nc3c2)cn1` (mixture of isomers) [Example I-122, 2-Amino-N-[(2S)-butan-2-yl]-7-(1-{1-[2-(trifluoromethyl)pyridin-4-yl]propyl}-1H-pyrazol-4-yl)[1,2,4]triazolo[1,5-a]pyridine-5-carboxamide] yielded an IC50 (DLK) of 3.5 nM and an IC50 (LZK) of 7.4 nM.
In the case of `CC[C@H](C)NC(=O)c1cc(-c2cnn(C(c3c(F)cncc3F)C(C)C)c2)cc2nc(N)nn12` (mixture of isomers) [Example I-123, 2-Amino-N-[(2S)-butan-2-yl]-7-{1-[1-(3,5-difluoropyridin-4-yl)-2-methylpropyl]-1H-pyrazol-4-yl}[1,2,4]triazolo[1,5-a]pyridine-5-carboxamide], the IC50 (DLK) is reported as 5.9 nM and the IC50 (LZK) is reported as 170 nM.
`CC[C@H](C)NC(=O)c1cc(-c2cnn(C(c3ccnc(OC)c3)C(C)C)c2)cc2nc(N)nn12` (mixture of isomers) [Example I-126, 2-Amino-N-[(2S)-butan-2-yl]-7-{1-[1-(2-methoxypyridin-4-yl)-2-methylpropyl]-1H-pyrazol-4-yl}[1,2,4]triazolo[1,5-a]pyridine-5-carboxamide] showed an IC50 (DLK) of 0.2 nM and an IC50 (LZK) of 1.3 nM.
`CCC(c1ccc(Cl)s1)n1cc(-c2cc(C(=O)N[C@@H](C)CC)c3nc(N)nn3c2)cn1` (mixture of isomers) [Example I-129, 2-Amino-N-[(2S)-butan-2-yl]-6-{1-[1-(5-chloro-2-thienyl)propyl]-1H-pyrazol-4-yl}[1,2,4]triazolo[1,5-a]pyridine-8-carboxamide] was tested, and the IC50 (DLK) was 3.4 nM and the IC50 (LZK) was 39 nM.
With `C[C@@H](CF)NC(=O)c1cc(-c2cnn(C3CCOc4ccccc43)c2)cn2nc(N)nc12` (mixture of isomers) [Example I-143, 2-Amino-6-{1-[3,4-dihydro-2H-1-benzopyran-4-yl]-1H-pyrazol-4-yl}-N-[1-fluoropropan-2-yl][1,2,4]triazolo[1,5-a]pyridine-8-carboxamide] the IC50 (DLK) was 33 nM and the IC50 (LZK) was 15 nM.
Compound `CC(CF)NC(=O)c1cc(-c2cnn(C3CCOc4ccccc43)c2)cn2nc(N)nc12` (mixture of isomers) [Example I-144, 2-Amino-6-{1-(3,4-dihydro-2H-1-benzopyran-4-yl)-1H-pyrazol-4-yl}-N-[1-fluoropropan-2-yl][1,2,4]triazolo[1,5-a]pyridine-8-carboxamide] has an IC50 (DLK) of 84 nM and an IC50 (LZK) of 79 nM.
For `CCC(c1ccc(C(F)(F)F)nc1)n1cc(-c2cc(C(=O)NC(C)CF)c3nc(N)nn3c2)cn1` (mixture of isomers) [Example I-147], the IC50 (DLK) was 3.9 nM and the IC50 (LZK) was 25 nM.
For `CC[C@@H](c1ccc(F)cc1)n1cc(-c2cc(C(=O)NC(C)CF)n3nc(N)nc3c2)cn1` (mixture of isomers) [Example I-148, 2-Amino-7-{1-[(1S)-1-(4-fluorophenyl)propyl]-1H-pyrazol-4-yl}-N-(1-fluoropropan-2-yl)[1,2,4]triazolo[1,5-a]pyridine-5-carboxamide], the IC50 (DLK) was 1.6 nM and the IC50 (LZK) was 32 nM.
`CCC(c1ccc(C(F)(F)F)nc1)n1cc(-c2cc(C(=O)N[C@@H](C)CO)c3nc(N)nn3c2)cn1` (mixture of isomers) [Example I-151, 2-Amino-N-[(2S)-1-hydroxypropan-2-yl]-6-(1-{1-[6-(trifluoromethyl)pyridin-3-yl]propyl}-1H-pyrazol-4-yl)[1,2,4]triazolo[1,5-a]pyridine-8-carboxamide] showed an IC50 (DLK) of 6.9 nM and an IC50 (LZK) of 9.8 nM.
`C[C@@H](CO)NC(=O)c1cc(-c2cnn(C(c3ccc(C(F)(F)F)nc3)C3CCOCC3)c2)cn2nc(N)nc12` (mixture of isomers) [Example I-154, 2-Amino-N-[(25)-1-hydroxypropan-2-yl]-6-(1-{tetrahydro-2H-pyran-4-yl[6-(trifluoromethyl)pyridin-3-yl]methyl}-1H-pyrazol-4-yl)[1,2,4]triazolo[1,5-a]pyridine-8-carboxamide] gave an IC50 (DLK) of 1.1 nM and an IC50 (LZK) of 4.6 nM.
